In the supplement of paper PMC10307832:

Key:
Experiment in all cases: relative viability (nuclei count vs DMSO), 5 days (fraction); higher = more cells survive
NCI-H1395 = tested on: NCI-H1395
In short: (§1)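 Lung cancer cell lines were pin-tool dosed in 1536-well plates on the day after seeding, with either a lone drug or a fixed anchor-drug dose plus five library-drug doses (not always all listed) in √10 steps. Nuclei were counted on 4× images after 5 days. Relative viability is the ratio of treated-well to vehicle-well nuclei counts, with each value a median of duplicate plates.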

NCI-H650 = tested on: NCI-H650
In short: as §1

NCI-H2170 = tested on: NCI-H2170
In short: as §1

HARA = tested on: HARA
In short: as §1

LU99A = tested on: LU99A
In short: as §1

NCI-H1793 = tested on: NCI-H1793
In short: as §1

NCI-H23 = tested on: NCI-H23
In short: as §1

LXF-289 = tested on: LXF-289
In short: as §1

NCI-H1666 = tested on: NCI-H1666
In short: as §1

NCI-H2023 = tested on: NCI-H2023
In short: as §1

PC-3 [JPC-3] = tested on: PC-3 [JPC-3]
In short: as §1

NCI-H460 = tested on: NCI-H460
In short: as §1

NCI-H1915 = tested on: NCI-H1915
In short: as §1

LCLC-97TM1 = tested on: LCLC-97TM1
In short: as §1

SK-LU-1 = tested on: SK-LU-1
In short: as §1

A-427 = tested on: A-427
In short: as §1

LOU-NH91 = tested on: LOU-NH91
In short: as §1

NCI-H2126 = tested on: NCI-H2126
In short: as §1

NCI-H441 = tested on: NCI-H441
In short: as §1

BEN = tested on: BEN
In short: as §1

NCI-H322M = tested on: NCI-H322M
In short: as §1

NCI-H1755 = tested on: NCI-H1755
In short: as §1

NCI-H1944 = tested on: NCI-H1944
In short: as §1

## O=c1[nH]c2ccccc2n1C1CCN(CCCC(c2ccc(F)cc2)c2ccc(F)cc2)CC1 [Pimozide] + Nc1ncn([C@H]2C[C@H](O)[C@@H](CO)O2)c(=O)n1 [Decitabine] (partner 2 µM)
NCI-H1395; first compound 0.08 µM
  relative viability: 0.692
NCI-H1395; first compound 0.253 µM
  relative viability: 0.74
NCI-H1395; first compound 0.8 µM
  relative viability: 0.633
NCI-H1395; first compound 2.53 µM
  relative viability: 0.691
NCI-H1395; first compound 8 µM
  relative viability: 0.637
NCI-H650; first compound 0.08 µM
  relative viability: 0.278
NCI-H650; first compound 0.253 µM
  relative viability: 0.33
NCI-H650; first compound 0.8 µM
  relative viability: 0.342
NCI-H650; first compound 2.53 µM
  relative viability: 0.321
NCI-H650; first compound 8 µM
  relative viability: 0.275
NCI-H2170; first compound 0.08 µM
  relative viability: 0.43
NCI-H2170; first compound 0.253 µM
  relative viability: 0.453
NCI-H2170; first compound 0.8 µM
  relative viability: 0.432
NCI-H2170; first compound 2.53 µM
  relative viability: 0.477
NCI-H2170; first compound 8 µM
  relative viability: 0.454
HARA; first compound 0.08 µM
  relative viability: 0.535
HARA; first compound 0.253 µM
  relative viability: 0.586
HARA; first compound 0.8 µM
  relative viability: 0.476
HARA; first compound 2.53 µM
  relative viability: 0.528
HARA; first compound 8 µM
  relative viability: 0.617
LU99A; first compound 0.08 µM
  relative viability: 0.979
LU99A; first compound 0.8 µM
  relative viability: 0.97
LU99A; first compound 2.53 µM
  relative viability: 0.829
LU99A; first compound 8 µM
  relative viability: 0.847
NCI-H1793; first compound 0.08 µM
  relative viability: 0.501
NCI-H1793; first compound 0.253 µM
  relative viability: 0.489
NCI-H1793; first compound 0.8 µM
  relative viability: 0.516
NCI-H1793; first compound 2.53 µM
  relative viability: 0.556
NCI-H1793; first compound 8 µM
  relative viability: 0.58
NCI-H23; first compound 0.08 µM
  relative viability: 0.304
NCI-H23; first compound 0.253 µM
  relative viability: 0.301
NCI-H23; first compound 0.8 µM
  relative viability: 0.294
NCI-H23; first compound 2.53 µM
  relative viability: 0.333
NCI-H23; first compound 8 µM
  relative viability: 0.325
LXF-289; first compound 0.08 µM
  relative viability: 0.378
LXF-289; first compound 0.253 µM
  relative viability: 0.4
LXF-289; first compound 0.8 µM
  relative viability: 0.324
LXF-289; first compound 2.53 µM
  relative viability: 0.357
LXF-289; first compound 8 µM
  relative viability: 0.39
NCI-H1666; first compound 0.08 µM
  relative viability: 0.688
NCI-H1666; first compound 0.253 µM
  relative viability: 0.738
NCI-H1666; first compound 0.8 µM
  relative viability: 0.696
NCI-H1666; first compound 2.53 µM
  relative viability: 0.695
NCI-H1666; first compound 8 µM
  relative viability: 0.784
NCI-H2023; first compound 0.08 µM
  relative viability: 0.229
NCI-H2023; first compound 0.253 µM
  relative viability: 0.273
NCI-H2023; first compound 0.8 µM
  relative viability: 0.196
NCI-H2023; first compound 2.53 µM
  relative viability: 0.247
NCI-H2023; first compound 8 µM
  relative viability: 0.284
PC-3 [JPC-3]; first compound 0.253 µM
  relative viability: 0.838
PC-3 [JPC-3]; first compound 0.8 µM
  relative viability: 0.823
PC-3 [JPC-3]; first compound 2.53 µM
  relative viability: 0.904
PC-3 [JPC-3]; first compound 8 µM
  relative viability: 0.854
NCI-H460; first compound 0.08 µM
  relative viability: 0.553
NCI-H460; first compound 0.253 µM
  relative viability: 0.494
NCI-H460; first compound 0.8 µM
  relative viability: 0.462
NCI-H460; first compound 2.53 µM
  relative viability: 0.521
NCI-H460; first compound 8 µM
  relative viability: 0.45
NCI-H1915; first compound 0.08 µM
  relative viability: 0.267
NCI-H1915; first compound 0.253 µM
  relative viability: 0.248
NCI-H1915; first compound 2.53 µM
  relative viability: 0.262
NCI-H1915; first compound 8 µM
  relative viability: 0.262
LCLC-97TM1; first compound 0.08 µM
  relative viability: 0.229
LCLC-97TM1; first compound 0.253 µM
  relative viability: 0.245
LCLC-97TM1; first compound 0.8 µM
  relative viability: 0.183
LCLC-97TM1; first compound 2.53 µM
  relative viability: 0.221
LCLC-97TM1; first compound 8 µM
  relative viability: 0.228
SK-LU-1; first compound 0.08 µM
  relative viability: 0.631
SK-LU-1; first compound 0.253 µM
  relative viability: 0.741
SK-LU-1; first compound 0.8 µM
  relative viability: 0.6
SK-LU-1; first compound 2.53 µM
  relative viability: 0.583
SK-LU-1; first compound 8 µM
  relative viability: 0.49
A-427; first compound 0.08 µM
  relative viability: 0.527
A-427; first compound 0.253 µM
  relative viability: 0.583
A-427; first compound 0.8 µM
  relative viability: 0.606
A-427; first compound 2.53 µM
  relative viability: 0.479
A-427; first compound 8 µM
  relative viability: 0.57
LOU-NH91; first compound 0.08 µM
  relative viability: 0.64
LOU-NH91; first compound 0.253 µM
  relative viability: 0.818
LOU-NH91; first compound 0.8 µM
  relative viability: 0.778
LOU-NH91; first compound 2.53 µM
  relative viability: 0.829
LOU-NH91; first compound 8 µM
  relative viability: 0.866
NCI-H2126; first compound 0.08 µM
  relative viability: 0.613
NCI-H2126; first compound 0.253 µM
  relative viability: 0.576
NCI-H2126; first compound 0.8 µM
  relative viability: 0.549
NCI-H2126; first compound 2.53 µM
  relative viability: 0.557
NCI-H2126; first compound 8 µM
  relative viability: 0.62
NCI-H441; first compound 0.08 µM
  relative viability: 0.208
NCI-H441; first compound 0.253 µM
  relative viability: 0.255
NCI-H441; first compound 0.8 µM
  relative viability: 0.234
NCI-H441; first compound 2.53 µM
  relative viability: 0.236
NCI-H441; first compound 8 µM
  relative viability: 0.241
BEN; first compound 0.08 µM
  relative viability: 0.805
BEN; first compound 0.253 µM
  relative viability: 0.71
BEN; first compound 0.8 µM
  relative viability: 0.757
BEN; first compound 2.53 µM
  relative viability: 0.62
BEN; first compound 8 µM
  relative viability: 0.767
NCI-H322M; first compound 0.08 µM
  relative viability: 0.581
NCI-H322M; first compound 0.253 µM
  relative viability: 0.705
NCI-H322M; first compound 0.8 µM
  relative viability: 0.719
NCI-H322M; first compound 2.53 µM
  relative viability: 0.772
NCI-H322M; first compound 8 µM
  relative viability: 0.632
NCI-H1755; first compound 0.08 µM
  relative viability: 0.675
NCI-H1755; first compound 0.253 µM
  relative viability: 0.659
NCI-H1755; first compound 0.8 µM
  relative viability: 0.624
NCI-H1755; first compound 2.53 µM
  relative viability: 0.684
NCI-H1755; first compound 8 µM
  relative viability: 0.69
NCI-H1944; first compound 0.08 µM
  relative viability: 0.398
NCI-H1944; first compound 2.53 µM
  relative viability: 0.436
NCI-H1944; first compound 8 µM
  relative viability: 0.393
